# System: hypertensive patients
# Experiment: Two separate studies: blood pressure change with HCTZ, Losartan and rostafuroxin in patients carrying profile 4, 8 or 9
# Type: in vivo, human
# Settings: preliminary data; for modification in blood pressure: individuals carrying profile 4
# Excerpt: In particular, individuals carrying profile 4 show a modification in blood pressure of: −12.3±1.5 mmHg with HCTZ; −11.3±1.7 with Losartan and −18.74±1.8 mmHg with rostafuroxin; individuals with profile 8 show the a decrease in blood pressure of −11.3±1.2 with HCTZ; −11.6±1.3 with Losartan and −15.2±1.5 mmHg with rostafuroxin; individuals with profile 9 show the a decrease in blood pressure of −11.9±1.2 with HCTZ; −11.4±1.4 with Losartan and −15.2±1.5 mmHg with rostafuroxin.
Compound,modification in blood pressure [mmHg],decrease in blood pressure (individuals with profile 8) [mmHg],decrease in blood pressure (individuals with profile 9) [mmHg]
"NS(=O)(=O)c1cc2c(cc1Cl)NCNS2(=O)=O [HCTZ, 6-chloro-1,1-dioxo-3,4-dihydro-2H-1,2,4-benzothiadiazine-7-sulfonamide]",−12.3±1.5,−11.3±1.2,−11.9±1.2
"CCCCc1nc(Cl)c(CO)n1Cc1ccc(-c2ccccc2-c2nnn[nH]2)cc1 [Losartan, (2-butyl-4-chloro-1-{[2′-(1H-tetrazol-5-yl)biphenyl-4-yl]methyl}-1H-imidazol-5-yl)methanol]",−11.3±1.7,−11.6±1.3,−11.4±1.4

# — patent US9408854B2, “Methods and systems for pharmacogenomic treatment of cardiovascular conditions” (ROSTAQUO S.P.A., priority 2009, dated 2016)
